According to US11542249B2, “BTK inhibitor compounds” (Eli Lilly and Company, priority 2017, dated 2023):

Tests used:
[1] = system: activated B cells in human whole blood (CD69); test: Human Whole Blood CD69 in vitro assay (B cell activation, flow cytometry); assay type: cell-based; conditions: IC50 value ± standard deviation, anti-human-IgD-Dextran stimulation, read-out: HWB CD69 Rel IC50
Experimental: Human Whole Blood CD69 in Vitro Assay:
The HWB CD69 assay measures activated B cells in human whole blood using a flow cytometer. Compounds are diluted and added to assay plates with a Labcyte ECHO® 555 liquid handler. Compounds are tested in 10 point dose response curves (20 μM-0.001 μM) in 96-well v-bottom plates with a maximum DMSO concentration of 0.2%. Fresh blood from individual healthy volunteer is mixed with HEPES (0.5 ml HEPES added per 10 ml blood) and 100 μl/well is added to compound plates. The plates are sealed and incubated in a 37° C. incubator for 3 h. Anti-human-IgD-Dextran is added to each well to give a final concentration of 100 ng/ml, mixed, and put back into the incubator. After 1 h, the cells are washed with cold FACS buffer and transferred to a deep well plate. The cells are incubated with anti-human CD69-PE (BIOLEGEND®, clone FN50) and anti-human CD19-APC (BIOLEGEND®, clone HIB19) antibodies on ice for 20 min. The cells are washed and incubated in eBioscience™ 1-step Fix/Lyse solution (10×) at RT to lyse the red blood cells and fix the other cells. The white cells are pelleted and washed in FACS buffer and then brought up in read buffer. The suspended cells are transferred to 96-well round bottom plates and read on an IntelliCyt iQue® Screener Plus flow cytometer. From the SSC (Side Scatter Channel) vs FSC (Forward Scatter Channel) graph, the lymphocytes are identified. Lymphocytes are identified with gated on positive CD19 marker for quantify CD69 (a marker of activated B lymphocytes) MFI (mean fluorescent intensity/cell). The signal ratio is converted to percent inhibition using the following equation: % Inhibition=100−[(Test Compound−Median Min)/(Median Max−Median Min)×100].
(§1) The following Table 1 and Table 2 describes the relative IC50 data vs. human BTK, human EGFR, and human whole blood CD69.

human BTK = human BTK (Homo sapiens (Human), UniProt Q06187); test: BTK LANTHASCREEN Eu Kinase Binding Assay; conditions: IC50 value ± standard deviation; full-length His-labeled BTK, kinase tracer 236; read-out: hBTK Rel IC50
Sequence of human BTK (Q06187 whole entry): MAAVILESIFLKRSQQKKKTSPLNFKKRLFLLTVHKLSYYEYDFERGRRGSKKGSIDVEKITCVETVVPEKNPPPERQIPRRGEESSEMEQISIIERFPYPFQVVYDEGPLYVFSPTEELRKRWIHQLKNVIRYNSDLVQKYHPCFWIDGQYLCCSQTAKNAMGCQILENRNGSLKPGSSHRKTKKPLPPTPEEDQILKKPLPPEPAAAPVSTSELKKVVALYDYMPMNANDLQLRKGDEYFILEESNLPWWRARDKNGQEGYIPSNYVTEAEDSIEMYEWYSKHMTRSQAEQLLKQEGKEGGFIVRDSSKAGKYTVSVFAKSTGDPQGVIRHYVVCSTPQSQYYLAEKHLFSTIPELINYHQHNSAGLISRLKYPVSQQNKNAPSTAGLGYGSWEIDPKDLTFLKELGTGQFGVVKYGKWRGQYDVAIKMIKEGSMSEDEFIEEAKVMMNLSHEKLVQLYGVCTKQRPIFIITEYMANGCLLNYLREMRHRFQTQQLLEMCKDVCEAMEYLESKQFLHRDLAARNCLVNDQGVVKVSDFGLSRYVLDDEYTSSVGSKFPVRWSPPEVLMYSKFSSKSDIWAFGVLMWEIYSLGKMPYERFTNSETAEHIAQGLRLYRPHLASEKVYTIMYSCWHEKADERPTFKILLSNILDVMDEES
Experimental: (§2) BTK and EGFR in Vitro Assays:
(§3) The BTK and EGFR biochemical assays utilize LANTHASCREEN® Eu Kinase Binding Assays from Thermo Fisher Scientific, measuring the binding of the kinase with a […] tracer. The assay buffer consists of 50 mM HEPES pH 7.5, 0.01% BRU™-35, 10 mM MgCl2, 1 mM EGTA, and 1 mM DTT. The test compounds are diluted and added to the assay plate with a Labcyte ECHO® 555 liquid handler. The compounds are tested in 10 point dose response curves (100 μM-0.005 μM) with a maximum DMSO concentration of 1%. The assays are performed in 20 μL in low-volume 384-well white proxiplates. For the BTK assay, the concentration of full-length His-labeled BTK in the assay is 5 nM, the Eu-anti-His antibody is 2 nM, and the kinase tracer 236 is 60 nM. For the EGFR assay, the concentration of truncated (amino acids 668-1210) GST-labeled EGFR is 5 nM, the Eu-anti-GST antibody is 2 nM, and the kinase tracer 199 is 10 nM. The components of the assay (compound, enzyme/antibody, tracer) are assembled and incubated for 30 min prior to being read on a Perkin-Elmer EnVision with excitation at 340 nm, tracer emission at 665 nm, and antibody emission at 615 nm. The signal ratio is converted to percent inhibition using the following equation: % Inhibition=100−[(Test Compound−Median Minimum)/(Median Maximum−Median Minimum)×100].
as §1

human EGFR = human EGFR (Homo sapiens (Human), UniProt P00533); test: EGFR LANTHASCREEN Eu Kinase Binding Assay; conditions: IC50 value ± standard deviation; truncated GST-labeled EGFR, kinase tracer 199; read-out: hEGFR Rel IC50
Sequence of human EGFR (P00533 668-1210): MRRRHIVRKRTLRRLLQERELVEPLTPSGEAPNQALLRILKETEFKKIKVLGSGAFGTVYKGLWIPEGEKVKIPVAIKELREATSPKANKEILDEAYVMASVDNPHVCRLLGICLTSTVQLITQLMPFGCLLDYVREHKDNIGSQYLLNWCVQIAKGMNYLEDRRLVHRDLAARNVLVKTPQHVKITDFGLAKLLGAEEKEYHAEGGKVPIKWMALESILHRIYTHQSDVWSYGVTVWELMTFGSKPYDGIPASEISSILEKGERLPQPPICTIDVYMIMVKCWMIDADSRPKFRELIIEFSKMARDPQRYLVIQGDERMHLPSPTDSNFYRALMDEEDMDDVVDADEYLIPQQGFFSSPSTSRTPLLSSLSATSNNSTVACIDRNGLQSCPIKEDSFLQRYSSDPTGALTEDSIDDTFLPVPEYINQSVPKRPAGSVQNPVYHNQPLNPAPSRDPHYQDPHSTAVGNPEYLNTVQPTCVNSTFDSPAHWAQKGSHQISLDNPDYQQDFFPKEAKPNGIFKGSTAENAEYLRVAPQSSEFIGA
Experimental: as §2, §3

IC50 [1] | IC50 (human BTK) | IC50 (human EGFR) | SMILES
242 ± 64.3 nM |  |  | C=CC(=O)N1CC[C@H](Nc2cncc(-c3cnc(Nc4cccc(C)n4)nc3)c2)C1 [Example 17, 1-{(3S)-3-[(5-{2-[(6-methylpyridin-2-yl)amino]pyrimidin-5-yl}pyridin-3-yl)amino]pyrrolidin-1-yl}prop-2-en-1-one]
671 ± 236 nM | 72.4 ± 4.22 nM | 5180 ± 441 nM | C=CC(=O)N1CC[C@H](Nc2cncc(-c3cnc(Oc4cccc(Cl)c4)nc3)c2)C1 [Example 6, 1-[(3S)-3-[[5-[2-(3-chlorophenoxy)pyrimidin-5-yl]-3-pyridyl]amino]pyrrolidin-1-yl]prop-2-en-1-one]
180 ± 46 nM | 9.73 ± 2.01 nM | 129 ± 55.3 nM | C=CC(=O)N1CC(Nc2cncc(-c3cnc(Oc4cccc(Cl)c4)nc3)c2)C1 [Example 7, 1-[3-[[5-[2-(3-chlorophenoxy)pyrimidin-5-yl]-3-pyridyl]amino]azetidin-1-yl]prop-2-en-1-one]
208 ± 132 nM | 16.9 ± 3.93 nM | 2220 ± 649 nM | C=CC(=O)N1CCC(Nc2cncc(-c3cnc(Nc4cccc(C)n4)nc3)c2)CC1 [Example 20, 1-[4-[[5-[2-[(6-methyl-2-pyridyl)amino]pyrimidin-5-yl]-3-pyridyl]amino]-1-piperidyl]prop-2-en-1-one]
118 ± 56 nM |  |  | C=CC(=O)N1CC[C@H](Nc2cncc(-c3cnc(Nc4cccc(OC(F)F)c4)nc3)c2)C1 [Example 16, (S)-1-(3-((5-(2-((3-(difluoromethoxy)phenyl)amino)pyrimidin-5-yl)pyridin-3-yl)amino)pyrrolidin-1-yl)prop-2-en-1-one]
66.6 ± 19.9 nM | 6.89 ± 0.835 nM | 908 ± 546 nM | C=CC(=O)N1CCC(Nc2cncc(-c3cnc(Oc4cccc(OC(F)F)c4)nc3)n2)CC1 [Example 38, 1-[4-[[6-[2-[3-(difluoromethoxy)phenoxy]pyrimidin-5-yl]pyrazin-2-yl]amino]-1-piperidyl]prop-2-en-1-one]
71 ± 12.8 nM | < 5 nM | 247 ± 99.3 nM | C=CC(=O)N1CC(Nc2cncc(-c3cnc(Nc4cccc(C(F)(F)F)c4)nc3)c2)C1 [Example 18, 1-[3-[[5-[2-[3-(trifluoromethyl)anilino]pyrimidin-5-yl]-3-pyridyl]amino]azetidin-1-yl]prop-2-en-1-one]
355 ± 39 nM | 6.7 nM | 6100 nM | C=CC(=O)N1CCC(Nc2cncc(-c3cnc(Nc4cccc(Cl)c4)nc3)c2)CC1C (centres unmarked) [Example 47, 1-[4-[[5-[2-(3-chloroanilino)pyrimidin-5-yl]-3-pyridyl]amino]-2-methyl-1-piperidyl]prop-2-en-1-one]
227 ± 81.1 nM | 31 ± 12.4 nM | 3390 ± 2070 nM | C=CC(=O)N1CCC(Nc2cncc(-c3cnc(Nc4ccccn4)nc3)c2)CC1 [Example 22, 1-[4-[[5-[2-(2-pyridylamino)pyrimidin-5-yl]-3-pyridyl]amino]-1-piperidyl]prop-2-en-1-one]
219 ± 86 nM | 6.01 ± 0.579 nM | 1370 ± 1210 nM | C=CC(=O)N1CC[C@H](Nc2cncc(-c3cnc(Nc4cccc(Cl)c4)nc3)c2)C1 [Example 15]
466 ± 159 nM | 43.8 ± 4.17 nM | 52600 ± 28800 nM | CN(C)C/C=C/C(=O)N1CCC(Nc2cncc(-c3cnc(Oc4cccc(Cl)c4)nc3)n2)CC1 [Example 45, (E)-1-[4-[[6-[2-(3-chlorophenoxy)pyrimidin-5-yl]pyrazin-2-yl]amino]-1-piperidyl]-4-(dimethylamino)but-2-en-1-one]
490 ± 255 nM | 30.2 ± 4.32 nM | 4030 ± 1920 nM | C=CC(=O)N1CC(Nc2cncc(-c3cnc(Oc4cccc(C(F)(F)F)c4)nc3)n2)C1 [Example 26, 1-[3-[[6-[2-[3-(trifluoromethyl)phenoxy]pyrimidin-5-yl]pyrazin-2-yl]amino]azetidin-1-yl]prop-2-en-1-one]
157 ± 52.3 nM | < 5 nM | 6040 ± 2090 nM | CN(C)C/C=C/C(=O)N1CCC(Nc2cncc(-c3cnc(Nc4cccc(Cl)c4)nc3)n2)CC1 [Example 46, (E)-1-[4-[[6-[2-(3-chloroanilino)pyrimidin-5-yl]pyrazin-2-yl]amino]-1-piperidyl]-4-(dimethylamino)but-2-en-1-one]
226 ± 53 nM | 19.4 ± 1.67 nM | 2820 ± 492 nM | C=CC(=O)N1CC(Nc2cncc(-c3cnc(Oc4cccc(OC)c4)nc3)n2)C1 [Example 42, 1-[3-[[6-[2-(3-methoxyphenoxy)pyrimidin-5-yl]pyrazin-2-yl]amino]azetidin-1-yl]prop-2-en-1-one]
105 ± 43 nM | < 5 nM | 676 ± 23 nM | C=CC(=O)N1CC(Nc2cncc(-c3cnc(Nc4ccccc4OC(F)(F)F)nc3)n2)C1 [Example 43, 1-[3-[[6-[2-[2-(trifluoromethoxy)anilino]pyrimidin-5-yl]pyrazin-2-yl]amino]azetidin-1-yl]prop-2-en-1-one]
242 ± 91.2 nM | 18.1 ± 3.05 nM | 644 ± 61.8 nM | C=CC(=O)N1CC(Nc2cncc(-c3cnc(Oc4cccc(F)c4)nc3)c2)C1 [Example 11, 1-[3-[[5-[2-(3-fluorophenoxy)pyrimidin-5-yl]-3-pyridyl]amino]azetidin-1-yl]prop-2-en-1-one]
160 ± 38.2 nM | 8.84 ± 1.21 nM | > 100000 nM | C=CC(=O)N1CCC(Nc2cncc(-c3cnc(Nc4cccc(C(F)(F)F)n4)nc3)c2)CC1 [Example 21, 1-[4-[[5-[2-[[6-(trifluoromethyl)-2-pyridyl]amino]pyrimidin-5-yl]-3-pyridyl]amino]-1-piperidyl]prop-2-en-1-one]
135 ± 66.5 nM | 6.88 ± 1.37 nM | 194 ± 47.9 nM | C=CC(=O)N1C[C@@H](Nc2cncc(-c3cnc(Oc4cccc(Cl)c4)nc3)n2)[C@@H]1C (single isomer, unassigned; isomer 1) [Example 32]
239 ± 34.5 nM | 23.1 ± 0.0341 nM | 724 ± 375 nM | C=CC(=O)N1CC(Nc2cncc(-c3cnc(Oc4cccc(C(F)(F)F)c4)nc3)c2)C1 [Example 8, 1-[3-[[5-[2-[3-(trifluoromethyl)phenoxy]pyrimidin-5-yl]-3-pyridyl]amino]azetidin-1-yl]prop-2-en-1-one]
107 ± 45.4 nM | < 5 nM | 37.3 ± 26.1 nM | C=CC(=O)N1CC(Nc2cncc(-c3cnc(Nc4ccc(F)c(Cl)c4)nc3)n2)C1 [Example 35, 1-[3-[[6-[2-(3-chloro-4-fluoro-anilino)pyrimidin-5-yl]pyrazin-2-yl]amino]azetidin-1-yl]prop-2-en-1-one]
475 ± 166 nM | 24.1 ± 4.28 nM | 26500 ± 2880 nM | CN(C)C/C=C/C(=O)N1CCC(Nc2cncc(-c3cnc(Nc4cccc(Cl)c4)nc3)c2)CC1 [Example 23, (E)-1-[4-[[5-[2-(3-chloroanilino)pyrimidin-5-yl]-3-pyridyl]amino]-1-piperidyl]-4-(dimethylamino)but-2-en-1-one]
263 ± 129 nM | 34.5 ± 8.08 nM |  | C=CC(=O)N1CC(Nc2cncc(-c3cnc(Oc4cccc(OC(F)(F)F)c4)nc3)c2)C1 [Example 10, 1-[3-[[5-[2-[3-(trifluoromethoxy)phenoxy]pyrimidin-5-yl]-3-pyridyl]amino]azetidin-1-yl]prop-2-en-1-one]
161 ± 71 nM | 6.72 ± 1.7 nM | 15200 ± 654 nM | C=CC(=O)N1CC[C@H](Nc2cncc(-c3cnc(Nc4ccccc4OC(F)(F)F)nc3)n2)C1 [Example 36, 1-[(3S)-3-[[6-[2-[2-(trifluoromethoxy)anilino]pyrimidin-5-yl]pyrazin-2-yl]amino]pyrrolidin-1-yl]prop-2-en-1-one]
595 ± 326 nM |  |  | C=CC(=O)N1CC(Nc2cncc(-c3cnc(Oc4cccc(C#N)c4)nc3)c2)C1 [Example 3, 3-[5-[5-[(1-prop-2-enoylazetidin-3-yl)amino]-3-pyridyl]pyrimidin-2-yl]oxybenzonitrile]
